ChEMBL document CHEMBL4627303, “Design, synthesis and evaluation of flurbiprofen-clioquinol hybrids as multitarget-directed ligands against Alzheimer's disease” (Bioorg Med Chem, 2020)
Activity calls are given as the source filed them. No cut-off for these calls is given here.

Columns and labels:
[1] = Antioxidant activity assessed as AAPH-induced radical scavenging activity by measuring trolox equivalents for oxygen radical absorbance capacity measured every minute for 90 mins by ORAC-FL assay; assay type: functional
[2] = target: T1, Amine oxidase [flavin-containing] A (Homo sapiens, UniProt P21397); test: Inhibition of recombinant human MAOA expressed in baculovirus infected in BTI cells at 10 uM using kynuramine as substrate after 30 mins by fluorescence based assay relative to control; details: 0.5 h
T1 sequence (P21397 whole entry): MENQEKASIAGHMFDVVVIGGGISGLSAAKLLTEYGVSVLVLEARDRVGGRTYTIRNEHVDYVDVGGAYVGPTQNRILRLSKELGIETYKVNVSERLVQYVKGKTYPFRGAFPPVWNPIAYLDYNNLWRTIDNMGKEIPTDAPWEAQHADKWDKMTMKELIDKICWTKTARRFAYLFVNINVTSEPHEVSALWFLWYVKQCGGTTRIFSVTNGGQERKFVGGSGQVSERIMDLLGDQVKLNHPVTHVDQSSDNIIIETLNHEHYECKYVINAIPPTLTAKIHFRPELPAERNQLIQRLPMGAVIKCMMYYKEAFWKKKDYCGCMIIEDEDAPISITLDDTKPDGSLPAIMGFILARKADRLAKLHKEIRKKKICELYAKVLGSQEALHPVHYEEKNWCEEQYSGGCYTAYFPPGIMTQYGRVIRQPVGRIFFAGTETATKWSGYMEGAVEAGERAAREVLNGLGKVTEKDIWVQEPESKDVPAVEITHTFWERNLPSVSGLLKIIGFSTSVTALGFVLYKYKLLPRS

[3] = target: T2, Amine oxidase [flavin-containing] B (Homo sapiens, UniProt P27338); test: Inhibition of recombinant human MAOB expressed in baculovirus infected in BTI cells at 10 uM using kynuramine as substrate after 30 mins by fluorescence based assay relative to control; details: 0.5 h
T2 sequence (P27338 whole entry): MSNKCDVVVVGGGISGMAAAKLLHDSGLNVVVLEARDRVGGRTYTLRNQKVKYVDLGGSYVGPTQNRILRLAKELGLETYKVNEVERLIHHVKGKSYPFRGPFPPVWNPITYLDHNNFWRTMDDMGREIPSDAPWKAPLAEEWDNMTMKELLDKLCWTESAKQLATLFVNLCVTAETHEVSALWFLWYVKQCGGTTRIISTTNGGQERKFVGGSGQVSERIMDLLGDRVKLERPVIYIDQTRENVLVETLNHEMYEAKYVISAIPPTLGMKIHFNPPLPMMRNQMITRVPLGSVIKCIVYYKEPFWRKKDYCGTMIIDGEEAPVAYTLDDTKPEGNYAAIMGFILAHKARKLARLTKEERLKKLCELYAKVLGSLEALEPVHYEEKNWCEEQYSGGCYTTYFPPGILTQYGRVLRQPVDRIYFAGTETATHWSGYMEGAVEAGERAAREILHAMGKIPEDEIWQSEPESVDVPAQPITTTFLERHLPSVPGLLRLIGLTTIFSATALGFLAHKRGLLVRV

[4] = target: Amyloid-beta precursor protein (Homo sapiens) (UniProt P05067); test: Inhibition of HFIP-pretreated amyloid beta (1 to 42) (unknown origin) self-aggregation at 25 uM after 24 hrs by thioflavin-T fluorescence assay relative to control
[5] = target: Amyloid-beta precursor protein (Homo sapiens) (UniProt P05067); test: Inhibition of Cu2+-induced HFIP-pretreated amyloid beta (1 to 42) (unknown origin) aggregation at 25 uM measured after 24 hrs by thioflavin-T fluorescence assay relative to control
[6] = target: Amyloid-beta precursor protein (Homo sapiens) (UniProt P05067); test: Disaggregation of self-induced amyloid beta (1 to 42) (unknown origin) preformed fibrils at 25 uM measured after 24 hrs by thioflavin-T fluorescence assay relative to control
PC-12 [7] = test: Neuroprotective activity against H2O2-induced cytotoxicity in rat PC12 cells assessed as cell viability at 1 uM preincubated for 2 hrs followed by H2O2 addition and measured after 24 hrs by MTT assay (reference value: 48.3%); assay type: functional; details: read-out: Activity
PC-12 [8] = test: Neuroprotective activity against H2O2-induced cytotoxicity in rat PC12 cells assessed as cell viability at 10 uM preincubated for 2 hrs followed by H2O2 addition and measured after 24 hrs by MTT assay (reference value: 48.3%); assay type: functional; details: read-out: Activity
BV-2 [9] = test: Cytotoxicity against mouse BV2 cells assessed as reduction in cell viability at 0.5 to 10 uM measured after 30 mins by MTT assay; assay type: cell-based; details: bv-2, 0.5 h
BV-2 [10] = test: Cytotoxicity against LPS-induced mouse BV2 cells assessed as reduction in cell viability at 0.5 to 10 uM preincubated for 30 mins followed by LPS stimulation and measured after 24 hrs by MTT assay; assay type: cell-based; details: bv-2, 24 h
BV-2 [11] = test: Anti-neuroinflammatory activity in mouse BV2 cells assessed as inhibition of LPS-induced NO production at 0.5 uM preincubated for 30 mins followed by LPS stimulation measured after 24 hrs by Griess reagent based assay relative to control; assay type: functional
BV-2 [12] = test: Anti-neuroinflammatory activity in mouse BV2 cells assessed as inhibition of LPS-induced NO production at 2.5 uM preincubated for 30 mins followed by LPS stimulation measured after 24 hrs by Griess reagent based assay relative to control; assay type: functional
BV-2 [13] = test: Anti-neuroinflammatory activity in mouse BV2 cells assessed as inhibition of LPS-induced NO production at 10 uM preincubated for 30 mins followed by LPS stimulation measured after 24 hrs by Griess reagent based assay relative to control; assay type: functional
BV-2 [14] = test: Effect on nitric oxide production in mouse BV2 cells at 0.5 to 10 uM measured after 30 mins by Griess reagent based […]; assay type: ADME, cell-based; details: bv-2, 0.5 h
BV-2 [15] = test: Anti-neuroinflammatory activity in mouse BV2 cells assessed as inhibition of LPS-induced TNFalpha production at 0.5 uM preincubated for 30 mins followed by LPS stimulation measured after 24 hrs by ELISA relative to control; assay type: functional
BV-2 [16] = test: Anti-neuroinflammatory activity in mouse BV2 cells assessed as inhibition of LPS-induced TNFalpha production at 2.5 uM preincubated for 30 mins followed by LPS stimulation measured after 24 hrs by ELISA relative to control; assay type: functional
BV-2 [17] = test: Anti-neuroinflammatory activity in mouse BV2 cells assessed as inhibition of LPS-induced TNFalpha production at 10 uM preincubated for 30 mins followed by LPS stimulation measured after 24 hrs by ELISA relative to control; assay type: functional
BV-2 [18] = test: Effect on TNFalpha production in mouse BV2 cells at 10 uM measured after 30 mins by ELISA; assay type: ADME, cell-based; details: bv-2, 0.5 h
[19] = Effective permeability of the compound in PBS/EtOH buffer (7:3) at 100 ug/ml after 18 hrs by PAMPA-BBB assay; assay type: ADME; details: read-out: Peff
[20] = Metal chelating activity assessed as Cu2+-compound complex formation at 37.5 uM measured after 2 hrs in presence of 37.5 uM CuCl2 by UV-Vis spectrophotometric analysis
[21] = Metal chelating activity assessed as Al3+-compound complex formation at 37.5 uM measured after 2 hrs in presence of 37.5 uM AlCl3 by UV-vis spectrophotometric analysis
[22] = Metal chelating activity assessed as Zn2+-compound complex formation at 37.5 uM measured after 2 hrs in presence of 37.5 uM ZnCl2 by UV-vis spectrophotometric analysis
[23] = Metal chelating activity assessed as Fe2+-compound complex formation at 37.5 uM measured after 2 hrs in presence of 37.5 uM FeSO4 by UV-vis spectrophotometric analysis
[24] = Metal chelating activity assessed as compound-Cu2+ complex stoichiometry ratio of 1:1 at 37.5 uM in presence of CuCl2 after 15 mins by UV-visible spectrophotometric analysis
PC-12 [25] = test: Neuroprotective activity against H2O2-induced cytotoxicity in rat PC12 cells assessed as increase in cell viability preincubated for 2 hrs followed by H2O2 addition and measured after 24 hrs by MTT assay; assay type: functional, cell-based
BV-2 [26] = test: Anti-neuroinflammatory activity in mouse BV2 cells assessed as inhibition of LPS-induced NO production preincubated for 30 mins followed by LPS stimulation measured after 24 hrs by Griess reagent based assay; assay type: functional, cell-based
BV-2 [27] = test: Anti-neuroinflammatory activity in mouse BV2 cells assessed as inhibition of LPS-induced TNFalpha production preincubated for 30 mins followed by LPS stimulation measured after 24 hrs by ELISA; assay type: functional, cell-based
[28] = target: T2, Amine oxidase [flavin-containing] B; test: Inhibition of recombinant human MAOB expressed in baculovirus infected in BTI cells using kynuramine as substrate after 30 mins by fluorescence based assay; assay type: cell-based

Chain of Amyloid-beta precursor protein (Homo sapiens) (P05067 whole entry): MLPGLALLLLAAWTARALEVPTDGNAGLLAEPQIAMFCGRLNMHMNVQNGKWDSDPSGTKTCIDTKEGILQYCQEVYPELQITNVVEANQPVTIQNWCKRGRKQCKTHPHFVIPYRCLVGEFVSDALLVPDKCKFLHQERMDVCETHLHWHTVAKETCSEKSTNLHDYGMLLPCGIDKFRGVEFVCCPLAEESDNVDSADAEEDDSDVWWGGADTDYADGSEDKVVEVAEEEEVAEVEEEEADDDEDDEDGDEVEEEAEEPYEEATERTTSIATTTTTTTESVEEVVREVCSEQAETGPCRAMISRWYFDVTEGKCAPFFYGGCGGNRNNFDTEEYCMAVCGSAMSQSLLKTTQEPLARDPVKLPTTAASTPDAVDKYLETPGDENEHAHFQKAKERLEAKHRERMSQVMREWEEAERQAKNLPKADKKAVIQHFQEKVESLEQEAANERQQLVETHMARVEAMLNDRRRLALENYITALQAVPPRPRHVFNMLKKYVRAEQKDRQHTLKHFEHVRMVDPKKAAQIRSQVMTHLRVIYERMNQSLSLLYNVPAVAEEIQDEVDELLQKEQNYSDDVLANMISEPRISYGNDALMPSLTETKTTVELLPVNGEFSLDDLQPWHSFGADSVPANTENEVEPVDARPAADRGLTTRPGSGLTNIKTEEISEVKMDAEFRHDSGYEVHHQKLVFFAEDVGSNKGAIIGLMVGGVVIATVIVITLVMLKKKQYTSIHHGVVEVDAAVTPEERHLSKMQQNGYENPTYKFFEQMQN

Row | Structure (SMILES) | Activity [1] [µMequiv/µM] | inhibition at 10 µM [2] [%] | inhibition at 10 µM [3] [%] | inhibition [4] [%] | inhibition [5] [%] | Activity [6] [%] | viability at 1 µM (PC-12 [7]) [%] | viability at 10 µM (PC-12 [8]) [%] | Activity (BV-2 [9]) | Activity (BV-2 [10]) | inhibition at 0.5 µM (BV-2 [11]) [%] | inhibition at 2.5 µM (BV-2 [12]) [%] | inhibition at 10 µM (BV-2 [13]) [%] | Activity (BV-2 [14]) | inhibition at 0.5 µM (BV-2 [15]) [%] | inhibition at 2.5 µM (BV-2 [16]) [%] | inhibition at 10 µM (BV-2 [17]) [%] | Activity (BV-2 [18]) | Papp at 18 h, 100 ug/ml [19] [×10⁻⁶ cm/s] | Activity [20] | further results
1 | COC(=O)C(C)c1ccc(-c2ccccc2NCc2cc(N(C)C)ccc2O)c(F)c1 (stereo not given) | 1.91 | 35.4 | 34.6 | 96.1 | 87.3 | 91.1 | 68.6 | 80 | Non-Toxic | Non-Toxic | 26.9 | 43.4 | 52.4 | Non-Toxic | 35 | 49.1 | 68.1 | Non-Toxic | 4.09 | Active | Activity [21]: Active; Activity [22]: inactive; Activity [23]: inactive; Activity [24]: Active; Activity (PC-12 [25]): Dose-dependent effect; inhibition (BV-2 [26]): Dose-dependent effect; inhibition (BV-2 [27]): Dose-dependent effect
2 | COC(=O)C(C)c1ccc(-c2ccc(NCc3cc(N(C)C)ccc3O)cc2)c(F)c1 (stereo not given) | 2.44 | 26.3 | 52.4 | 96.3 | 84.3 | 91.1 | 70.2 | 81.6 | Non-Toxic | Non-Toxic | 32.4 | 46.7 | 57.2 | Non-Toxic | 35.8 | 53.1 | 76.5 | Non-Toxic | 5.48 | Active | IC50 [28]: 10.3 µM; Activity [21]: Active; Activity [22]: inactive; Activity [23]: inactive; Activity [24]: Active; Activity (PC-12 [25]): Dose-dependent effect; inhibition (BV-2 [26]): Dose-dependent effect; inhibition (BV-2 [27]): Dose-dependent effect
